Experimental data as given in patent US9550792B2, “Polycyclic substituted pyrazole kinase activity inhibitors and use thereof” (priority 2013, dated 2017).

Columns and labels:
[1] = tested on: lung cancer cell line A549; test: Anti-tumor activity in vitro, MTT method; conditions: Homo sapiens, A549, 48 h, read-out: A549 (IC50/μM)
Procedure: (§1) MTT method: the dehydrogenase associated with NADP in the mitochondria of living cell is capable of reducing exogenous MTT into insoluble bluish violet crystal (Formazan), which is precipitated in the cell. […] DMSO or Triple liquid (10% SDS-5% isobutanol-0.01 mol/L HCl) is used to dissolve the crystal in the cell. The OD determined at 570 nm by a microplate reader can reflect the amount of the living cell indirectly.
(§2) The crystal is dissolved with DMSO and the detection is performed on a microplate reader.

[2] = tested on: breast cancer cell line MDA231; test: Anti-tumor activity in vitro, MTT method; conditions: Homo sapiens, MDA-MB-231, 48 h, read-out: MDA231 (IC50/μM)
Procedure: as §1, §2

Question: For `CN1CCN(Cc2ccc(NC(=O)c3n[nH]cc3Nc3ncnc4sccc34)cc2)CC1` [Compound I-1, 4-(4-thieno[2,3-d]pyrimidinylamino)-N-(4-((4-methyl-1-piperazinyl)methyl)phenyl)-1H-3-pyrazole carboxamide], which IC50 [1] is on record?
Answer: 50.3 µM

Question: And the IC50 [2]?
Answer: 5.45 µM
